The nature of assay [1]: Antiplatelet activity in human platelet. Type of assay: functional, cell-based.
A short description of assay [2]: Antiplatelet aggregation activity in rabbit platelet assessed as reduction in ADP-induced platelet aggregation. Type of assay: functional, cell-based. The note with it: Oryctolagus cuniculus.
The subject of assay [3] is Blood. The assay can be described thus: Antithrombotic activity in ferric chloride-treated carotid artery thrombosis Sprague-dawley rat blood assessed as clot weight at 10 mg/kg (RVB = 72.50 +/- 2 mg). Type of assay: functional.
The subject of assay [4] is Blood. Kind of assay: Antithrombotic activity in ferric chloride-treated carotid artery thrombosis Sprague-dawley rat blood assessed as clot weight at 50 mg/kg (RVB = 72.50 +/- 2 mg). Type of assay: functional.
For assay [5], the system named is Blood. The assay can be described thus: Antithrombotic activity in photochemically induced arterial thrombosis Cynomolgus monkey blood assessed as decrease in occlusion time (reference value: 119 +/- 17.40 min). Type of assay: functional, Macaca fascicularis.
The subject of assay [6] is Plasma. The assay can be described thus: Antithrombotic activity in mouse plasma assessed as prothrombin time administered IV.
Assay [7] has as its system Plasma. The assay can be described thus: Antithrombotic activity in mouse plasma assessed as clotting time administered IV.
Assay [8] can be described thus: Antiplatelet activity in platelet (unknown origin) assessed as inhibition of ADP-induced platelet aggregation relative to control. Type of assay: functional, cell-based.
For assay [9], the species on record is Rattus norvegicus. Kind of assay: Antiplatelet aggregration activity in arteriovenous bypass thrombosis rat model assessed as aggregation inhibition rate relative to control. Type of assay: functional.
The test system of assay [10] is Erythrocyte. The assay can be described thus: Anticoagulant activity in human RBC assessed as decrease in epinephrine induced platelet aggregation by measuring increased clotting time relative to control. Type of assay: functional.
Assay [11] concerns Plasma. The assay can be described thus: Antiplatelet activity in rabbit plasma assessed as inhibition of arachidonic acid induced platelet aggregation. Type of assay: functional, cell-free. Particulars: Oryctolagus cuniculus.
Assay [12] relates to Plasma. Kind of assay: Anticoagulant activity in rabbit plasma assessed as thrombin time. Type of assay: functional, Oryctolagus cuniculus.
The subject of assay [13] is Plasma. Kind of assay: Anticoagulant activity in rabbit plasma assessed as activated partial thromboplastin time. Type of assay: functional, Oryctolagus cuniculus.
Assay [14] has as its system Plasma. Kind of assay: Anticoagulant activity in rabbit plasma assessed as prothrombin time. Type of assay: functional, Oryctolagus cuniculus.
Assay [15] concerns Plasma (Mus musculus). The assay can be described thus: Anticoagulant activity in mouse plasma assessed as prothrombin time.
Assay [16] relates to Plasma. Kind of assay: Antiplatelet aggregation activity in rabbit plasma incubated for 5 mins. Type of assay: functional, cell-free. The note with it: Oryctolagus cuniculus.
Assay [17] deals with Plasma. The assay can be described thus: Anticoagulant activity in mouse plasma assessed inhibition of thrombin-induced platelet aggregation. Type of assay: functional, cell-free.
Assay [18] relates to Platelet. Kind of assay: Potency index, ratio of IC50 for MCI-154 to IC50 for test compound against antiplatelet activity in human platelet. Type of assay: functional.
Assay [19] can be described thus: Anticoagulant activity in human platelet assessed as reduction in thrombin-induced platelet aggregation in presence of ADP by measuring turbidity. Type of assay: functional, cell-based.
In assay [20] the target is Coagulation factor X (Mus musculus, UniProt O88947). Kind of assay: Inhibition of mouse FXa.
Coagulation factor X, sequence (O88947 41-180 limits assumed): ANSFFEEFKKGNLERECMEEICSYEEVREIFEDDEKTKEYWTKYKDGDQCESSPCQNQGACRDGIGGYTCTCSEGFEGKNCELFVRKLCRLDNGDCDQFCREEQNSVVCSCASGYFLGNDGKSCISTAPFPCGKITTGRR
Coagulation factor X, sequence (O88947 232-481 limits assumed): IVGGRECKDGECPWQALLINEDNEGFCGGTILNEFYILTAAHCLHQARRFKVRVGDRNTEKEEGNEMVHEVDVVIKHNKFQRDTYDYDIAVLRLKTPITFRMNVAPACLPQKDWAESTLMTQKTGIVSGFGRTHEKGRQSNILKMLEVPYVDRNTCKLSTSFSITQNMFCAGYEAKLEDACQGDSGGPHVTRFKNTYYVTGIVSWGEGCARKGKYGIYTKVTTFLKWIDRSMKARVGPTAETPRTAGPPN
For assay [21], the species on record is Rattus norvegicus. Kind of assay: Antithrombotic activity in arteriovenous bypass thrombo-genesis rat model assessed as quality of thrombosis. Type of assay: functional.
Assay [22] relates to Plasma. The assay can be described thus: Antithrombotic activity in human plasma assessed as thrombin time. Type of assay: functional.
The target in assay [23] is Prothrombin (Homo sapiens, UniProt P00734). The assay can be described thus: Inhibition of thrombin in human plasma. Type of assay: cell-free.
Assay [24] is described as follows: Antithrombotic activity in fresh platelet rich plasma. Type of assay: functional, cell-based.

Consider 31 compounds from ChEMBL document CHEMBL5126515, “Progress of thrombus formation and research on the structure-activity relationship for antithrombotic drugs” (Eur J Med Chem, 2022).

Values after ≈ are worked out from the molar mass of the structure shown.

In general, IC50 refers to the point on the concentration scale where inhibition reaches its midpoint. As for `CCCN(CCC)CC(=O)Nc1ccc(C2=NNC(=O)CC2C)cc1` (centres undefined), the IC50 in assay [1] was determined as 0.085 µM.

On to `O=C(O)/C=C/c1ccc(Cn2ccnc2)cc1` [OZAGREL], for which the 50% inhibitory concentration (IC50) in [2] was found to be 2850 µM.

As for `O=C(COCC(=O)N1CCN(C(c2ccccc2)c2ccccc2)CC1)Nc1ccc(Cl)cc1C(=O)[O-].[Na+]`, the figures for the Activity in assay [3] and in assay [4] were 60.9 mg and 56.8 mg, respectively. The Time in [5] is 53.9 min.

For `O=C(Nc1ccc2oc(=O)ccc2c1)c1ccc(-c2noc(CCl)n2)cc1`, the Time in [6] was 42.3 s; in assay [7], 17.7 s.

In the case of `CC(=O)Oc1ccccc1C(=O)Nc1n[n+](-c2ccc(C)cc2)no1`, in [8], the “inhibition (INH)” value turned out to be 30.7%.

Take `COc1cc(/C=C/C(=O)OCCOCCO[N+](=O)[O-])ccc1OC(=O)c1ccccc1OC(C)=O`: the “inhibition (INH)” value in assay [9] was 16%.

In the case of `Cn1c(-c2ccc(Br)s2)nc2cc(-c3nnc(-c4cc(-c5cc(F)cc(F)c5)nc5ccccc45)o3)ccc21`, the “inhibition (INH)” value in assay [10] is reported as 93.4%.

For `COc1cc(/C=C/C(=O)O)ccc1OCCN1CCOCC1`, the “inhibition (INH)” value in assay [8] is on record as 91.4%.

As for `Cc1ccc2c(c1)NC(CC(=O)c1ccccc1)C(=O)O2` (centres undefined), the IC50 in assay [11] worked out at 18 µg/mL (≈ 63.8 µM).

Take `COc1cc(O)c2c(=O)c(O)c(-c3ccc(O)c(O)c3)oc2c1` [RHAMNETIN]: the Time in assay [12] was determined as 23 s; in [13] it was 6.8 s; in assay [14], 72.6 s.

As to `CC(=O)Nc1ccc(C(=O)Nc2cc(C(N)=O)ccc2NC(=O)c2ccc(-n3ccccc3=O)cc2)cc1Cl`, the Time in [14] came out at 10.2 s.

With `CCCCCCCCN1CCN(c2ccc(C3=NNC(=O)CC3)cc2)CC1`, in assay [2], the half-inhibitory concentration (IC50) came out at 2.5 µM.

For the compound `CC(=O)CC(c1ccccc1)c1c(O)c2ccccc2oc1=O` (centres undefined) [WARFARIN], the Time in [6] worked out at 42.3 s; in assay [15], 7.97 s; in assay [7], 23.2 s.

In the case of `O=C(OCCOc1ccc2ccc(=O)oc2c1)c1ccccc1OCCOc1ccc2ccc(=O)oc2c1`, the Time in [15] amounted to 10.88 s.

As for `COc1cc(/C=C/C(=O)O)ccc1OCc1cccnc1`, the IC50 in [2] is 1760 µM.

In the case of `COc1cc(/C=C/C(=O)OCc2c(-c3ccccc3)no[n+]2[O-])ccc1OC(=O)c1ccccc1OC(C)=O`, the “inhibition (INH)” value in assay [9] is 12.1%.

Consider `CCN1C(=O)COc2cc(NC(=O)CCCl)ccc21`, for which 8.94 µM corresponded to half-maximal inhibition in [16] (IC50).

As for `CCOC(=O)CCN(C(=O)c1ccc2c(c1)nc1n2CCN(CC(=O)OCC)C1Cc1ccc(/C(N)=N/CC(=O)OCC)cc1)c1ccccc1` (centres undefined), half-maximal inhibition in assay [17] (IC50) was put at 0.32 µM.

Take `CCCN(CCC)CC(=O)Nc1ccc(C2=NNC(=O)CC2)cc1`: in assay [18], the “Ratio IC50” value turned out to be 10. The compound further had an IC50 in assay [1] of 0.03 µM.

Regarding `O=C1CNC(=O)C(Cc2c[nH]cn2)N1` (centres undefined), the IC50 in [19] came to 66 µM.

For `CC(=N)N1CCC(Oc2ccc3c(c2)C(=O)NS(=O)(=O)N3Cc2ccc3ccc(C(=N)N)cc3c2)CC1`, the IC50 in [20] came to 0.0021 µM.

For the compound `CC(=O)Oc1ccccc1C(=O)O` [ASPIRIN], in [9], the “inhibition (INH)” value is reported as 14.7%. In assay [21], the Activity is reported as 10.5 mg.

As to `CC(C)[C@](O)(C(=O)OCC1=CCN2CC[C@@H](O)[C@@H]12)[C@H](C)O`, the IC50 in assay [8] (platelet) is 0.49 µM; in [2], 12.5 µM.

`COc1cc(OC)c2c(=O)c(O)c(-c3ccc(O)c(O)c3)oc2c1`: the Time was found to be 21.8 s in assay [12], 6.9 s in assay [13] and 67.6 s in [14].

As to `COC(=O)c1ccccc1OCCOc1ccc2c(C)cc(=O)oc2c1`, the Time in [15] was determined as 8.44 s.

On to `CN(C)C(=O)c1ccc(NC(=O)c2ccc(-n3ccccc3=O)cc2)c(NC(=O)c2ccc(Cl)c(Cl)c2)c1`, for which the Time in [14] came out at 9.5 s.

The compound `CCN1C(=O)COc2cc(NC(=O)c3ccccc3)ccc21` returned an IC50 in [16] of 8.99 µM.

For the compound `CC1(C)[C@@H](OC(=O)c2ccccc2C(=O)O)CC[C@]2(C)[C@H]3C(=O)C=C4[C@@H]5C[C@@](C)(C(=O)O)CC[C@]5(C)CC[C@@]4(C)[C@]3(C)CC[C@@H]12`, the Time in assay [22] was determined as 118.3 s. The half-maximal inhibitory concentration (IC50) in [23] came out at 114 µM.

Regarding `COc1cc(/C=C/C(=O)OCCCCCCCCCOc2no[n+]([O-])c2S(=O)(=O)c2ccccc2)ccc1OC(=O)c1ccccc1OC(C)=O`, in [9], the “inhibition (INH)” value turned out to be 15.7%.

Compound `O=C(O)CC1CCCCCCCCCNC(=O)OCOC(=O)C(Cc2ccccc2)NC1=O` (centres undefined) registered an IC50 in [24] of 0.4 µM.

`O=C(CC1CCCCCCCCCNC(=O)OCOC(=O)C(Cc2ccccc2)NC1=O)OCc1ccccc1` (centres undefined) had an IC50 in assay [24] of 0.2 µM.
